{"source": "patent US8703725B2", "about": "“Nutritional compositions” (NESTEC S.A., priority 2002, dated 2014)", "test_system": "muscle protein kinetics", "experiment": "Protein kinetics in muscle of rabbits infused with amino acid mixtures (surgical stress model)", "format": "in vivo, New Zealand white rabbits", "conditions": "rabbit, infusion, means ± SEM", "description": "To investigate the optimal mixture of free amino acids for stimulating net muscle protein synthesis a series of studies in New Zealand white rabbits weighing about 4.5 kg was performed. Net muscle protein balance was quantified by a technique analogous to the one used for human studies as described in Biolo et al, J Parent Enteral Nutr 16:305-315, 1992, which is hereby incorporated by reference, except that leg blood flow was measured by flow probe. This animal model is designed to represent a stress model induced by the surgical procedures needed to collect the samples and therefore is considered to be a good model for a seriously-ill […] patient. Different amino acid mixtures were infused into the rabbits, and the response of muscle quantified.\nThe groups were as follows:\nAA group: A balanced AA solution (10% TRAVASOL®) containing all amino acids (27.3 umol·kg^−1·min^−1)\nEAA group: Only essential amino acids (27.3 umol·kg^−1·min^−1)\nLeu (25%)+AA group: Leucine was added to the balanced AA solution to account for 25% of total nitrogen and infused at the same total nitrogen group as others (27.3 umol·kg^−1·min^−1)\nLeu (35%)+AA group: Same as above, except Leu comprised 35% of total\nLeu only: Leucine only at 8.3 umol·kg·min"}
{"smiles": "CC(C)C[C@H](N)C(=O)O", "note": "[Leu alone, Leucine]", "values": [{"measurement": "Protein kinetics in muscle: Breakdown", "result": "9.2 ± 0.5", "unit": "µmol/kg/min"}, {"measurement": "Protein kinetics in muscle: Net balance", "setting": "*p<0.05 vs control", "result": "-2.6 ± 0.3", "unit": "µmol/kg/min"}, {"measurement": "Protein kinetics in muscle: Synthesis", "setting": "*p<0.05 vs control", "result": "6.6 ± 0.7", "unit": "µmol/kg/min"}]}
